Reference: article PMC10520196 (Clinical Pharmacokinetics, 2023)

Key:
[1] = Final pediatric population PK model; format: in vivo, human
[2] = maturation half-time, fixed; based on paracetamol; ref Anderson et al.; cited from earlier work
[3] = healthy adult volunteers, same dose; cited from earlier work
Observed C24 in P1093 = format: in vivo; conditions: human, plasma, oral, Geometric mean C24, P1093, ≥ 6 to < 10 kg
[4] = final PopPK model, reference 70-kg subject

With `C[C@@H]1CCO[C@H]2Cn3cc(C(=O)NCc4ccc(F)cc4F)c(=O)c(O)c3C(=O)N12` [dolutegravir, Dolutegravir] the “KA (DT and granules)” value ([1]; calculated as 0.854 × 2.04) was “KA (DT and granules) = 1.74 (95% CI 1.20–2.28), calculated as 0.854 × 2.04 (95% CI 0.854 × 1.41–0.854 × 2.67)”, the “V/F~WT” value ([1]; effect of weight on V/F (exponent)) was 0.556 and the “KA~DT and granules” value ([1]; final PopPK model, factor on KA of FCT) was 2.04. For the same compound, the “KA, FCT” value ([1]; final PopPK model, film-coated tablet) was 0.854 h^–1, the CL/F [1, 4] was 1.03 L/h and the V/F [1, 4] was 13.6 L. For the same compound, the “ω^2CL point estimate” value ([1]; inter-individual variability of CL/F, variance) was 0.0863, the “ω^2KA point estimate” value ([1]; inter-individual variability of KA, variance) was 0.762 and the “ω^2V point estimate” value ([1]; inter-individual variability of V/F, variance) was 0.0698. For the same compound, the “ω^2IOV,KA point estimate” value ([1]; inter-occasion variability of KA, variance) was 0.610, the “F, fasted DT/granules” value ([1]; relative bioavailability) was 1.53 and the “F, without regard to food, FCT” value ([1]; relative bioavailability) was 1.10. For the same compound, the “F, fasted FCT” value ([1]; relative bioavailability, reference, fixed) was 1.00, the TM50 [2] was 52.2 FIX week and the “Relative bioavailability of DT vs granules” value [3] was “comparable”. For the same compound, the concentration at 24 h (Observed C24 in P1093; 10 mg, < 6 months of age, DT 10 mg QD) was 1820 ng/mL, the concentration at 24 h (Observed C24 in P1093; 10 mg, ≥ 6 months of age, DT 10 mg QD) was 735 ng/mL and the concentration at 24 h (Observed C24 in P1093; 15 mg, ≥ 6 months of age, DT 15 mg QD) was 908 ng/mL.
